Assay results reported in publication PMC8356907 (Current analytical chemistry, 2021).
Square brackets hold non-standard residues; d marks the D form.

Columns and labels:
[1] = system: A549 cells; test: Live cell NIR fluorescence microscopy; format: cell-based, human; conditions: 100 μM inhibitor, paclitaxel-treated A549 cells, 4 h
[2] = target: human integrin αvβ3 purified protein (Homo sapiens, UniProt P05106+P06756); test: Solid-phase RGD receptor-binding assay
[3] = target: T1, recombinant human caspase 3 (Homo sapiens, UniProt P42574); conditions: cited from earlier work; for kcat: standard fluorogenic substrates; for Km: standard substrates
T1 sequence (P42574 29-175 limits assumed): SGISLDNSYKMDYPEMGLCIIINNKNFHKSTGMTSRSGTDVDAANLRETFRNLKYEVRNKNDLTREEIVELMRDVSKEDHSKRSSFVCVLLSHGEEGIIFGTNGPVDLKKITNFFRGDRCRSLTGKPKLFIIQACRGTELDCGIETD
T1 sequence (P42574 176-277 limits assumed): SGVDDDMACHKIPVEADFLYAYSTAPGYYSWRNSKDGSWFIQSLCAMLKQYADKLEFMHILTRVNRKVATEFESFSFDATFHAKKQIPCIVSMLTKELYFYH

[4] = target: T2, human integrin αvβ3 purified protein (human), P06756; test: radioligand binding; conditions: remark: other sources report otherwise
T2 chain 1: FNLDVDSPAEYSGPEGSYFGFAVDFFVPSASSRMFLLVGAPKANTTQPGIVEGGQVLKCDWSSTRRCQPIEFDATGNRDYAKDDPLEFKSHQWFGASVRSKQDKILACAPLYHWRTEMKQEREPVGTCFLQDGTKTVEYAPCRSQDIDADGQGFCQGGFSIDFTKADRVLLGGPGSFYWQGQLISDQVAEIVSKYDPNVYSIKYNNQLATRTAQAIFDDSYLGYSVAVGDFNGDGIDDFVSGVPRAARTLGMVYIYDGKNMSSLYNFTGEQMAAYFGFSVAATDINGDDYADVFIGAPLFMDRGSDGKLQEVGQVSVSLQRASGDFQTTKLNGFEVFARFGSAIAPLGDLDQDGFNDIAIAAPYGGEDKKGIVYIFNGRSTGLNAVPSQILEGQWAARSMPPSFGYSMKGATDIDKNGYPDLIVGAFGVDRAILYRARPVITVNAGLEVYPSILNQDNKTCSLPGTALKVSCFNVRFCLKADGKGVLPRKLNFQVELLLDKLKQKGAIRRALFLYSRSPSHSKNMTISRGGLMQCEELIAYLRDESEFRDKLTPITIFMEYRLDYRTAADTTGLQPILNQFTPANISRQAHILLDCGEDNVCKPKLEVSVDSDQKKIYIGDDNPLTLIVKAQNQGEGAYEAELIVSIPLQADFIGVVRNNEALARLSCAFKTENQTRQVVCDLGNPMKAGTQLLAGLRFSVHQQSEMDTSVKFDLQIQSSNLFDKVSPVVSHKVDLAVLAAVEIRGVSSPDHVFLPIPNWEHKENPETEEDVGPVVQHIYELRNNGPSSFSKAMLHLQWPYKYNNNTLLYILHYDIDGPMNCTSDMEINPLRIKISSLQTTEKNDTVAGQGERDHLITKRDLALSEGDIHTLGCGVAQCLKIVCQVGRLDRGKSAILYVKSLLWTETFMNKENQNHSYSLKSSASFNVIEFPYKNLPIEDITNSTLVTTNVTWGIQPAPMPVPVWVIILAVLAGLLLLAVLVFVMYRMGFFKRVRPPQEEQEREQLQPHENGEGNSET
T2 chain 2: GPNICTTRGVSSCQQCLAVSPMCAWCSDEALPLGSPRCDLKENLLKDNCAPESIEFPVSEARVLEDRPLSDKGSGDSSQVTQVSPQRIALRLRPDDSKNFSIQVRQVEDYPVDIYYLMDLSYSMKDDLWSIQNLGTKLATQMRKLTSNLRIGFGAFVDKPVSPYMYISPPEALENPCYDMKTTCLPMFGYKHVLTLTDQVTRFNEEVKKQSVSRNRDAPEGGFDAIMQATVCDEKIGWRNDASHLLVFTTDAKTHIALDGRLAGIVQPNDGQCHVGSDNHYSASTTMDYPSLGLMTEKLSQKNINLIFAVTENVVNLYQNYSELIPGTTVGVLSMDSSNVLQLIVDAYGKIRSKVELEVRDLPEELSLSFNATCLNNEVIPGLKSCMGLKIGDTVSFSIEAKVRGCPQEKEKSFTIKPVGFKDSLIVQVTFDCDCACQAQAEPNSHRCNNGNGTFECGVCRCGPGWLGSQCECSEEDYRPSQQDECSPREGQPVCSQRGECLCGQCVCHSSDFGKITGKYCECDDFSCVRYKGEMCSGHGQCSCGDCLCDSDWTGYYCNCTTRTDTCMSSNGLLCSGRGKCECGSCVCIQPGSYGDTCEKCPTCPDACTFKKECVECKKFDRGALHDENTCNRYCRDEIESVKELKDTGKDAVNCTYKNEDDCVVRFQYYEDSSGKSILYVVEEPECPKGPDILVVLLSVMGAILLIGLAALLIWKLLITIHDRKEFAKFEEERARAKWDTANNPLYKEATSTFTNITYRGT

[5] = target: human integrin αvβ3 purified protein (human, UniProt P06756 31-1048; P05106 27-788); test: radioligand binding

Z-Asp(Ome)-Glu(Ome)-Val-Asp(OMe)-FMK
effect of caspase-3 inhibitor on LS422 fluorescence activation [1]: inability to activate the LS422 fluorescence

Cypate-c(RGDfK) [LS167]
Ki ([2]; read-out: Ki (nM ± s.d.), corrected Ki, modified Cheng-Prusoff equation, 125I-c(RGDyK) tracer): 1.62 ± 0.491 nM

Ac-DEVD-pNA
kcat [3]: 2.4 s⁻¹ | Km [3]: 11 µM

cypate-octreotate
decrease in the binding affinity ([2]; non-RGD peptide control): > 100 fold

Ac-DEVD-AMC
kcat [3]: 0.75 s⁻¹ | Km [3]: 9.7 µM

B1: LS167 (Cypate-c(RGDfK)) (peptide)
peptide: cyclo(RGD[dF]K)
modifications: also: cypate label, position not given here
Ki [4]: 1.62 nM

B2: 125I-c(RGDyK) (peptide)
peptide: cyclo(RGD[dY]K)
modifications: also: 125I label, site not given here
Kd [5]: 0.4 nM
